Results as given in US9580444B2, “Polycyclic pyrazolinone derivative and herbicide comprising same as effective component thereof” (priority 2013, dated 2017).

Experiments:
Type in all cases: in vivo
Conditions in all cases: 500 g a.i/ha, foliage treatment after emergence, about 14 days after treatment, score 0-5
corn = experiment: Test Example-4: phytotoxicity by a foliage treatment after weeds are generated under upland field conditions
Source text: (§1) Using the formulation prepared according to the methods described above, the herbicidal effect of the bicyclic pyrazolinone derivative of the invention according to the methods shown in Test Examples below was examined. The herbicidal effect with respect to the test weeds or the phytotoxicity with respect to the test crops was examined according to the following criteria, and evaluated in six stage scores of 0 to 5. A vat having an area of 65 cm^2 and a depth of 2 cm was filled with upland soil, then, seeds of Amaranthus viridis (green amaranthus), Abutilon theophrasti (velvetleaf), Chenopodium album (common lambsquarters), […]. While watering was suitably performed on there, the seeds were grown for 14 days. A wettable powder or an emulsifiable concentrate of the compound of the present invention prepared according to Formulation Example was diluted, and a spray treatment was uniformly performed on the foliage portion of the plant so as to be a predetermined dosage in the amount of water of 4000 L per hectare. The herbicidal effect with respect to the test weeds and the phytotoxicity with respect to corn about 14 days after the treatment were evaluated according to the evaluation criteria in six stages of 0 to 5 described above.

[1] = test system: Amaranthus viridis (green amaranthus); experiment: Test Example-4: herbicidal effect by a foliage treatment after weeds are generated under upland field conditions
Source text: as §1

[2] = test system: Abutilon theophrasti (velvetleaf); experiment: as above
Source text: as §1

[3] = test system: Chenopodium album (common lambsquarters); experiment: as above
Source text: as §1

| SMILES | Phytotoxicity Corn (corn) | Herbicidal effect Amaranthus viridis [1] | Herbicidal effect Abutilon theophrast [2] | Herbicidal effect Chenopodium album [3] |
| --- | --- | --- | --- | --- |
| C=C(C)COC(=O)C=C(COc1cc(-c2c(Cl)n3n(c2=O)CCCC3)c(F)cc1Cl)OCC [Example 2-30] | 0 (Herbicidal effect/phytotoxicity was 0% to 10%) | 5 (Herbicidal effect/phytotoxicity was 90% or greater) | 5 (Herbicidal effect/phytotoxicity was 90% or greater) | 5 (Herbicidal effect/phytotoxicity was 90% or greater) |
| COc1ccccc1Oc1cc(-c2c(Cl)n3n(c2=O)CCCC3)c(F)cc1Cl [Example 3-2] | 2 (Herbicidal effect/phytotoxicity was 30% to 50%) | 5 (Herbicidal effect/phytotoxicity was 90% or greater) | 5 (Herbicidal effect/phytotoxicity was 90% or greater) | 5 (Herbicidal effect/phytotoxicity was 90% or greater) |
| CC(C)Oc1ccccc1Oc1cc(-c2c(Cl)n3n(c2=O)CCCC3)c(F)cc1Cl [Example 3-8] | 0 (Herbicidal effect/phytotoxicity was 0% to 10%) | 5 (Herbicidal effect/phytotoxicity was 90% or greater) | 5 (Herbicidal effect/phytotoxicity was 90% or greater) | 5 (Herbicidal effect/phytotoxicity was 90% or greater) |
| CC(C)Oc1cccc(Oc2cc(-c3c(Cl)n4n(c3=O)CCCC4)c(F)cc2Cl)c1 [Example 3-11] | 0 (Herbicidal effect/phytotoxicity was 0% to 10%) | 5 (Herbicidal effect/phytotoxicity was 90% or greater) | 5 (Herbicidal effect/phytotoxicity was 90% or greater) | 5 (Herbicidal effect/phytotoxicity was 90% or greater) |
| CCOC(=O)COc1ccccc1Oc1cc(-c2c(Cl)n3n(c2=O)CCCC3)c(F)cc1Cl [Example 3-17] | 0 (Herbicidal effect/phytotoxicity was 0% to 10%) | 5 (Herbicidal effect/phytotoxicity was 90% or greater) | 5 (Herbicidal effect/phytotoxicity was 90% or greater) | 5 (Herbicidal effect/phytotoxicity was 90% or greater) |
| C=CCOc1ccccc1Oc1cc(-c2c(Cl)n3n(c2=O)CCCC3)c(F)cc1Cl [Example 3-21] | 1 (Herbicidal effect/phytotoxicity was 10% to 30%) | 5 (Herbicidal effect/phytotoxicity was 90% or greater) | 5 (Herbicidal effect/phytotoxicity was 90% or greater) | 5 (Herbicidal effect/phytotoxicity was 90% or greater) |
| C=C(C)COc1ccccc1Oc1cc(-c2c(Cl)n3n(c2=O)CCCC3)c(F)cc1Cl [Example 3-22] | 0 (Herbicidal effect/phytotoxicity was 0% to 10%) | 5 (Herbicidal effect/phytotoxicity was 90% or greater) | 5 (Herbicidal effect/phytotoxicity was 90% or greater) | 5 (Herbicidal effect/phytotoxicity was 90% or greater) |
| COC(=O)C=C(COc1ccccc1Oc1cc(-c2c(Cl)n3n(c2=O)CCCC3)c(F)cc1Cl)OC [Example 3-23] | 0 (Herbicidal effect/phytotoxicity was 0% to 10%) | 5 (Herbicidal effect/phytotoxicity was 90% or greater) | 5 (Herbicidal effect/phytotoxicity was 90% or greater) | 5 (Herbicidal effect/phytotoxicity was 90% or greater) |
| C=CCOC(=O)C=C(COc1ccccc1Oc1cc(-c2c(Cl)n3n(c2=O)CCCC3)c(F)cc1Cl)OC [Example 3-24] | 0 (Herbicidal effect/phytotoxicity was 0% to 10%) | 5 (Herbicidal effect/phytotoxicity was 90% or greater) | 5 (Herbicidal effect/phytotoxicity was 90% or greater) | 5 (Herbicidal effect/phytotoxicity was 90% or greater) |
| C=CCOc1cccc(Oc2cc(-c3c(Cl)n4n(c3=O)CCCC4)c(F)cc2Cl)c1 [Example 3-28] | 0 (Herbicidal effect/phytotoxicity was 0% to 10%) | 5 (Herbicidal effect/phytotoxicity was 90% or greater) | 5 (Herbicidal effect/phytotoxicity was 90% or greater) | 5 (Herbicidal effect/phytotoxicity was 90% or greater) |
| CC#CCOc1ccccc1Oc1cc(-c2c(Cl)n3n(c2=O)CCCC3)c(F)cc1Cl [Example 3-30] | 1 (Herbicidal effect/phytotoxicity was 10% to 30%) | 5 (Herbicidal effect/phytotoxicity was 90% or greater) | 5 (Herbicidal effect/phytotoxicity was 90% or greater) | 5 (Herbicidal effect/phytotoxicity was 90% or greater) |
| C#CCOc1cc(F)ccc1Oc1cc(-c2c(Cl)n3n(c2=O)CCCC3)c(F)cc1Cl [Example 3-35] | 1 (Herbicidal effect/phytotoxicity was 10% to 30%) | 5 (Herbicidal effect/phytotoxicity was 90% or greater) | 5 (Herbicidal effect/phytotoxicity was 90% or greater) | 5 (Herbicidal effect/phytotoxicity was 90% or greater) |
| COc1cc(C)ccc1Oc1cc(-c2c(Cl)n3n(c2=O)CCCC3)c(F)cc1Cl [Example 3-41] | 1 (Herbicidal effect/phytotoxicity was 10% to 30%) | 5 (Herbicidal effect/phytotoxicity was 90% or greater) | 5 (Herbicidal effect/phytotoxicity was 90% or greater) | 5 (Herbicidal effect/phytotoxicity was 90% or greater) |
| C=CCOc1cc(C)ccc1Oc1cc(-c2c(Cl)n3n(c2=O)CCCC3)c(F)cc1Cl [Example 3-42] | 0 (Herbicidal effect/phytotoxicity was 0% to 10%) | 5 (Herbicidal effect/phytotoxicity was 90% or greater) | 5 (Herbicidal effect/phytotoxicity was 90% or greater) | 5 (Herbicidal effect/phytotoxicity was 90% or greater) |
| C#CCOc1cc(C)ccc1Oc1cc(-c2c(Cl)n3n(c2=O)CCCC3)c(F)cc1Cl [Example 3-43] | 0 (Herbicidal effect/phytotoxicity was 0% to 10%) | 5 (Herbicidal effect/phytotoxicity was 90% or greater) | 5 (Herbicidal effect/phytotoxicity was 90% or greater) | 5 (Herbicidal effect/phytotoxicity was 90% or greater) |
| CC1(COc2cc(-c3c(Cl)n4n(c3=O)CCCC4)c(F)cc2Cl)CC(c2ccccc2)=NO1 (stereo not shown) [Example 4-1] | 0 (Herbicidal effect/phytotoxicity was 0% to 10%) | 5 (Herbicidal effect/phytotoxicity was 90% or greater) | 5 (Herbicidal effect/phytotoxicity was 90% or greater) | 5 (Herbicidal effect/phytotoxicity was 90% or greater) |
| CC1(COc2cc(-c3c(Cl)n4n(c3=O)CCCC4)c(F)cc2Cl)CC(c2ccccc2Cl)=NO1 (stereo not shown) [Example 4-5] | 1 (Herbicidal effect/phytotoxicity was 10% to 30%) | 5 (Herbicidal effect/phytotoxicity was 90% or greater) | 5 (Herbicidal effect/phytotoxicity was 90% or greater) | 5 (Herbicidal effect/phytotoxicity was 90% or greater) |
| CC1(COc2cc(-c3c(Cl)n4n(c3=O)CCCC4)c(F)cc2Cl)CC(c2ccc(Cl)cc2)=NO1 (stereo not shown) [Example 4-8] | 2 (Herbicidal effect/phytotoxicity was 30% to 50%) | 5 (Herbicidal effect/phytotoxicity was 90% or greater) | 5 (Herbicidal effect/phytotoxicity was 90% or greater) | 5 (Herbicidal effect/phytotoxicity was 90% or greater) |
| CC1(COc2cc(-c3c(Cl)n4n(c3=O)CCCC4)c(F)cc2Cl)CC(c2ccc(F)cc2Cl)=NO1 (stereo not shown) [Example 4-11] | 2 (Herbicidal effect/phytotoxicity was 30% to 50%) | 5 (Herbicidal effect/phytotoxicity was 90% or greater) | 5 (Herbicidal effect/phytotoxicity was 90% or greater) | 5 (Herbicidal effect/phytotoxicity was 90% or greater) |
| CC1(COc2cc(-c3c(Cl)n4n(c3=O)CCCC4)c(F)cc2Cl)CC(c2ccc(Cl)cc2Cl)=NO1 (stereo not shown) [Example 4-12] | 1 (Herbicidal effect/phytotoxicity was 10% to 30%) | 5 (Herbicidal effect/phytotoxicity was 90% or greater) | 5 (Herbicidal effect/phytotoxicity was 90% or greater) | 5 (Herbicidal effect/phytotoxicity was 90% or greater) |
| Nc1cc(-c2c(Cl)n3n(c2=O)CCCC3)c(F)cc1Cl [Example 5-11] | 1 (Herbicidal effect/phytotoxicity was 10% to 30%) | 5 (Herbicidal effect/phytotoxicity was 90% or greater) | 5 (Herbicidal effect/phytotoxicity was 90% or greater) | 5 (Herbicidal effect/phytotoxicity was 90% or greater) |
| CCS(=O)(=O)Nc1cc(-c2c(Cl)n3n(c2=O)CCCC3)c(F)cc1Cl [Example 5-51] | 0 (Herbicidal effect/phytotoxicity was 0% to 10%) | 5 (Herbicidal effect/phytotoxicity was 90% or greater) | 5 (Herbicidal effect/phytotoxicity was 90% or greater) | 5 (Herbicidal effect/phytotoxicity was 90% or greater) |
